# Measured values as given in the NIST ThermoML archive (doi:10.1016/j.jct.2017.06.002).
# ± gives the expanded uncertainty stated by the source.
# What was measured:
# [1] = 100 kPa, Liquid; for viscosity: Concentric cylinders viscometry
# [2] = xn = mol fraction of the nth substance listed; conditions: 100 kPa, Liquid, x1 = 1; for viscosity: Concentric cylinders viscometry; for mass density: Vibrating tube method
# [3] = 288.15 K, Vibrating tube method
# [4] = 293.15 K, Vibrating tube method
# [5] = 298.15 K, Buoyancy - hydrostatic balance
# [6] = 298.15 K, Vibrating tube method
# [7] = 303.15 K, Vibrating tube method
# [8] = 308.15 K, Vibrating tube method
# [9] = 313.15 K, Vibrating tube method
compound,measurement,setting,value
"COCOCOCOC [2,4,6,8-tetraoxanonane]",viscosity,[1]; 288.15 K,1.259 ± 0.051 mPa·s
same,mass density,[1]; [3],1037.5 ± 2 kg/m3
same,viscosity,[1]; 293.15 K,1.166 ± 0.051 mPa·s
same,mass density,[1]; [4],1030.2 ± 2 kg/m3
same,mass density,[1]; [5],1023.1 ± 2 kg/m3
same,viscosity,[1]; 298.15 K,1.084 ± 0.051 mPa·s
same,mass density,[1]; [6],1023.4 ± 2 kg/m3
same,viscosity,[1]; 303.15 K,1.028 ± 0.051 mPa·s
same,mass density,[1]; [7],1016.6 ± 2 kg/m3
same,viscosity,[1]; 308.15 K,0.9921 ± 0.051 mPa·s
same,mass density,[1]; [8],1011 ± 2 kg/m3
same,viscosity,[1]; 313.15 K,0.9521 ± 0.05 mPa·s
same,mass density,[1]; [9],1005 ± 2 kg/m3
"COCOCOCOC [2,4,6,8-tetraoxanonane] + COCOCOCOCOC",viscosity,[2]; 288.15 K,1.259 ± 0.051 mPa·s
same,mass density,[2]; 288.15 K,1037.5 ± 2 kg/m3
same,viscosity,[2]; 293.15 K,1.166 ± 0.051 mPa·s
same,mass density,[2]; 293.15 K,1030.2 ± 2 kg/m3
same,viscosity,[2]; 298.15 K,1.084 ± 0.051 mPa·s
same,mass density,[2]; 298.15 K,1023.4 ± 2 kg/m3
same,viscosity,[2]; 303.15 K,1.028 ± 0.051 mPa·s
same,mass density,[2]; 303.15 K,1016.6 ± 2 kg/m3
same,viscosity,[2]; 308.15 K,0.9921 ± 0.051 mPa·s
same,mass density,[2]; 308.15 K,1011 ± 2 kg/m3
same,viscosity,[2]; 313.15 K,0.9521 ± 0.05 mPa·s
same,mass density,[2]; 313.15 K,1005 ± 2 kg/m3
"COCOCOC [2,4,6-trioxaheptane] + COCOCOCOCOC",viscosity,[2]; 288.15 K,0.9255 ± 0.05 mPa·s
same,mass density,[2]; 288.15 K,999.4 ± 2 kg/m3
same,viscosity,[2]; 293.15 K,0.9152 ± 0.05 mPa·s
same,mass density,[2]; 293.15 K,995.3 ± 2 kg/m3
same,viscosity,[2]; 298.15 K,0.9028 ± 0.05 mPa·s
same,mass density,[2]; 298.15 K,989.9 ± 2 kg/m3
same,viscosity,[2]; 303.15 K,0.8885 ± 0.05 mPa·s
same,mass density,[2]; 303.15 K,984.3 ± 2 kg/m3
same,viscosity,[2]; 308.15 K,0.8726 ± 0.05 mPa·s
same,mass density,[2]; 308.15 K,978.8 ± 2 kg/m3
same,viscosity,[2]; 313.15 K,0.8554 ± 0.05 mPa·s
same,mass density,[2]; 313.15 K,974.2 ± 2 kg/m3
"COCOCOCOCOC [2,4,6,8,10-pentaoxaundecane]",viscosity,[1]; 288.15 K,2.207 ± 0.051 mPa·s
same,mass density,[1]; [3],1078.8 ± 2 kg/m3
same,viscosity,[1]; 293.15 K,2.015 ± 0.051 mPa·s
same,mass density,[1]; [4],1073.3 ± 2 kg/m3
same,mass density,[1]; [5],1067.8 ± 2 kg/m3
same,viscosity,[1]; 298.15 K,1.848 ± 0.051 mPa·s
same,mass density,[1]; [6],1068.2 ± 2 kg/m3
same,viscosity,[1]; 303.15 K,1.703 ± 0.051 mPa·s
same,mass density,[1]; [7],1063.4 ± 2 kg/m3
same,viscosity,[1]; 308.15 K,1.576 ± 0.051 mPa·s
same,mass density,[1]; [8],1059.1 ± 2 kg/m3
same,viscosity,[1]; 313.15 K,1.464 ± 0.051 mPa·s
same,mass density,[1]; [9],1055.2 ± 2 kg/m3
"COCOCOC [2,4,6-trioxaheptane]",viscosity,[1]; 288.15 K,0.9255 ± 0.05 mPa·s
same,mass density,[1]; [3],999.4 ± 2 kg/m3
same,viscosity,[1]; 293.15 K,0.9152 ± 0.05 mPa·s
same,mass density,[1]; [4],995.3 ± 2 kg/m3
same,mass density,[1]; [5],989.2 ± 2 kg/m3
same,viscosity,[1]; 298.15 K,0.9028 ± 0.05 mPa·s
same,mass density,[1]; [6],989.9 ± 2 kg/m3
same,viscosity,[1]; 303.15 K,0.8885 ± 0.05 mPa·s
same,mass density,[1]; [7],984.3 ± 2 kg/m3
same,viscosity,[1]; 308.15 K,0.8726 ± 0.05 mPa·s
same,mass density,[1]; [8],978.8 ± 2 kg/m3
same,viscosity,[1]; 313.15 K,0.8554 ± 0.05 mPa·s
same,mass density,[1]; [9],974.2 ± 2 kg/m3
"COCOCOC [2,4,6-trioxaheptane] + COCOCOCOC",viscosity,[2]; 288.15 K,0.9255 ± 0.05 mPa·s
same,mass density,[2]; 288.15 K,999.4 ± 2 kg/m3
same,viscosity,[2]; 293.15 K,0.9152 ± 0.05 mPa·s
same,mass density,[2]; 293.15 K,995.3 ± 2 kg/m3
same,viscosity,[2]; 298.15 K,0.9028 ± 0.05 mPa·s
same,mass density,[2]; 298.15 K,989.9 ± 2 kg/m3
same,viscosity,[2]; 303.15 K,0.8885 ± 0.05 mPa·s
same,mass density,[2]; 303.15 K,984.3 ± 2 kg/m3
same,viscosity,[2]; 308.15 K,0.8726 ± 0.05 mPa·s
same,mass density,[2]; 308.15 K,978.8 ± 2 kg/m3
same,viscosity,[2]; 313.15 K,0.8554 ± 0.05 mPa·s
same,mass density,[2]; 313.15 K,974.2 ± 2 kg/m3
